According to patent US20260365682A1, “MODULATORS OF TNF-ALPHA ACTIVITY” (Forward Therapeutics, Inc., priority 2022, published 2026):

Target: T1, TNF-α (Homo sapiens, UniProt P01375)
T1 construct: purchased R&D 210-TA-020/CF
Test: TNF-α Induced HEK Blue Cellular Assay (secreted alkaline phosphatase expression, QUANTI-Blue)
Assay type: cell-based
Details: HEK Blue TNFα reporter cells; TNF-α 100 μg/ml; 24 hrs at 37° C.; inhibition of secreted alkaline phosphatase; read-out: IC50 value
Procedure, shortened: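 HEK Blue TNFα reporter cells (10,000/well) in DMEM with 10% FBS received compound ([…] to 0.5 nM final) and TNF-α at […] final for 24 h at 37° C. Secreted alkaline phosphatase read with QUANTI-Blue at 620 nm. IC50 came from a 4-parameter logistic fit after normalising to unstimulated and stimulated DMSO controls.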

T1 sequence (P01375 77-233 limits assumed): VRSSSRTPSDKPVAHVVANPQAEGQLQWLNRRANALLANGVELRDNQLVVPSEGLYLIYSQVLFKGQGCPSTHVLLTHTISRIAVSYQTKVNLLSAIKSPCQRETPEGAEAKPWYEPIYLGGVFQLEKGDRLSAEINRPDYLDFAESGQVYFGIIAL

`[2H]C([2H])([2H])N1C(=O)c2cccc(OC(F)F)c2[C@H]2C[C@@H]1c1nc3ccc(C#CC4(F)CNC4)cc3n12` [Example 253, (7R,14R)-1-(difluoromethoxy)-11-((3-fluoroazetidin-3-yl)ethynyl)-6-(methyl-d3)-6,7-dihydro-7,14-methanobenzo[f]benzo[4,5]imidazo[1,2-a][1,4]diazocin-5(14H)-one] and `[2H]C([2H])([2H])N1C(=O)c2cccc(OC(F)F)c2[C@H]2C[C@@H]1c1nc3ccc(C#CC4CCN(C)C4)cc3n12` (stereo partly drawn) [Example 76, (7R,14R)-1-(difluoromethoxy)-6-(methyl-d3)-11-((1-methylpyrrolidin-3-yl)ethynyl)-6,7-dihydro-7,14-methanobenzo[f]benzo[4,5]imidazo[1,2-a][1,4]diazocin-5(14H)-one] cannot be ordered by IC50: less than 100 nM for the first, less than 100 nM for the second.

`[2H]C([2H])([2H])N1C(=O)c2cccc(OC(F)F)c2[C@H]2C[C@@H]1c1nc3ccc(C#Cc4ccc(C)nn4)cc3n12` [Example 26, (7R,14R)-1-(difluoromethoxy)-6-(methyl-d3)-11-((6-methylpyridazin-3-yl)ethynyl)-6,7-dihydro-7,14-methanobenzo[f]benzo[4,5]imidazo[1,2-a][1,4]diazocin-5(14H)-one] and `[2H]C([2H])([2H])N1C(=O)c2cccc(OC(F)F)c2[C@H]2C[C@@H]1c1nc3ccc(C#Cc4nnc(CNC)s4)cc3n12` [Example 46, (7R,14R)-1-(difluoromethoxy)-6-(methyl-d3)-11-((5-((methylamino)methyl)-1,3,4-thiadiazol-2-yl)ethynyl)-6,7-dihydro-7,14-methanobenzo[f]benzo[4,5]imidazo[1,2-a][1,4]diazocin-5(14H)-one] fall in the same range of IC50: 100 to 1000 nM for the first, 100 to 1000 nM for the second.

`[2H]C([2H])([2H])N1C(=O)c2cccc(OC(F)F)c2[C@H]2C[C@@H]1c1nc3c(F)cc(C#CC4(C)COC4)cc3n12` [Example 145, (7R,14R)-1-(difluoromethoxy)-9-fluoro-6-(methyl-d3)-11-((3-methyloxetan-3-yl)ethynyl)-6,7-dihydro-7,14-methanobenzo[f]benzo[4,5]imidazo[1,2-a][1,4]diazocin-5(14H)-one] and `[2H]C([2H])([2H])N1C(=O)c2cccc(OC(F)F)c2[C@H]2C[C@@H]1c1nc3ccc(C#CCC(O)C(C)O)cc3n12` (single isomer, unassigned) [Example 246, (7R,14R)-1-(difluoromethoxy)-11-((4R or 4S,5R or 5S)-4,5-dihydroxyhex-1-yn-1-yl)-6-(methyl-d3)-6,7-dihydro-7,14-methanobenzo[f]benzo[4,5]imidazo[1,2-a][1,4]diazocin-5(14H)-one] cannot be ordered by IC50: less than 100 nM for the first, less than 100 nM for the second.

First: [2H]C([2H])([2H])N1C(=O)c2cccc(OC(F)F)c2[C@H]2C[C@@H]1c1nc3ccc(C#CCCN4CC(C)(C#N)C4)cc3n12 [Example 154, 1-(4-((7R,14R)-1-(difluoromethoxy)-6-(methyl-d3)-5-oxo-5,6,7,14-tetrahydro-7,14-methanobenzo[f]benzo[4,5]imidazo[1,2-a][1,4]diazocin-11-yl)but-3-yn-1-yl)-3-methylazetidine-3-carbonitrile]
Second: [2H]C([2H])([2H])N1C(=O)c2cccc(OC(F)F)c2[C@H]2C[C@@H]1c1nc3ccc(C#CCCNC(=O)C4CC4)cc3n12 [Example 214, N-(4-((7R,14R)-1-(difluoromethoxy)-6-(methyl-d3)-5-oxo-5,6,7,14-tetrahydro-7,14-methanobenzo[f]benzo[4,5]imidazo[1,2-a][1,4]diazocin-11-yl)but-3-yn-1-yl)cyclopropanecarboxamide]
The IC50 of the first is lower: less than 100 nM for the first, 100 to 1000 nM for the second.

First: [2H]C([2H])([2H])N1C(=O)c2cccc(OC(F)F)c2[C@H]2C[C@@H]1c1nc3ccc(C#CC4CCN(C(=O)C(C)(C)O)C4)cc3n12 (stereo partly drawn) [Example 202, (7R,14R)-1-(difluoromethoxy)-11-((1-(2-hydroxy-2-methylpropanoyl)pyrrolidin-3-yl)ethynyl)-6-(methyl-d3)-6,7-dihydro-7,14-methanobenzo[f]benzo[4,5]imidazo[1,2-a][1,4]diazocin-5(14H)-one]
Second: [2H]C([2H])([2H])N1C(=O)c2cccc(OC(F)F)c2[C@H]2C[C@@H]1c1nc3ccc(C#CC4CN(CC(C)(C)O)C4)cc3n12 [Example 197, (7R,14R)-1-(difluoromethoxy)-11-((1-(2-hydroxy-2-methylpropyl)azetidin-3-yl)ethynyl)-6-(methyl-d3)-6,7-dihydro-7,14-methanobenzo[f]benzo[4,5]imidazo[1,2-a][1,4]diazocin-5(14H)-one]
The IC50 of the first is lower: 100 to 1000 nM for the first, 10000 to 30000 nM for the second. The first is the more potent here.

`[2H]C([2H])([2H])N1C(=O)c2cccc(OC(F)F)c2[C@H]2C[C@@H]1c1nc3ccc(C#Cc4cn(C)nc4C#N)cc3n12` [Example 20, 4-(((7R,14R)-1-(difluoromethoxy)-6-(methyl-d3)-5-oxo-5,6,7,14-tetrahydro-7,14-methanobenzo[f]benzo[4,5]imidazo[1,2-a][1,4]diazocin-11-yl)ethynyl)-1-methyl-1H-pyrazole-3-carbonitrile] and `[2H]C([2H])([2H])N1C(=O)c2cccc(OC(F)F)c2[C@H]2C[C@@H]1c1nc3ccc(C#Cc4cncs4)cc3n12` [Example 32, (7R,14R)-1-(difluoromethoxy)-6-(methyl-d3)-11-(thiazol-5-ylethynyl)-6,7-dihydro-7,14-methanobenzo[f]benzo[4,5]imidazo[1,2-a][1,4]diazocin-5(14H)-one] cannot be ordered by IC50: less than 100 nM for the first, less than 100 nM for the second.

`[2H]C([2H])([2H])N1C(=O)c2cccc(OC(F)F)c2[C@H]2C[C@@H]1c1nc3ccc(C#CC4CN(C(C)C)C4)cc3n12` [Example 119, (7R,14R)-1-(difluoromethoxy)-11-((1-isopropylazetidin-3-yl)ethynyl)-6-(methyl-d3)-6,7-dihydro-7,14-methanobenzo[f]benzo[4,5]imidazo[1,2-a][1,4]diazocin-5(14H)-one] and `[2H]C([2H])([2H])N1C(=O)c2cccc(OC(F)F)c2[C@H]2C[C@@H]1c1nc3ccc(C#CC4CN(CC(F)(F)F)C4)cc3n12` [Example 124, (7R,14R)-1-(difluoromethoxy)-6-(methyl-d3)-11-((1-(2,2,2-trifluoroethyl)azetidin-3-yl)ethynyl)-6,7-dihydro-7,14-methanobenzo[f]benzo[4,5]imidazo[1,2-a][1,4]diazocin-5(14H)-one] cannot be ordered by IC50: less than 100 nM for the first, less than 100 nM for the second.

`[2H]C([2H])([2H])N1C(=O)c2cccc(OC(F)F)c2[C@H]2C[C@@H]1c1nc3ccc(C#CCN4CC[C@H](F)C4)cc3n12` [Example 235, (7R,14R)-1-(difluoromethoxy)-11-(3-((S)-3-fluoropyrrolidin-1-yl)prop-1-yn-1-yl)-6-(methyl-d3)-6,7-dihydro-7,14-methanobenzo[f]benzo[4,5]imidazo[1,2-a][1,4]diazocin-5(14H)-one] and `[2H]C([2H])([2H])N1C(=O)c2cccc(OC(F)F)c2[C@H]2C[C@@H]1c1nc3ccc(C#CCOC(C)C)cc3n12` [Example 74, (7R,14R)-1-(difluoromethoxy)-11-(3-isopropoxyprop-1-yn-1-yl)-6-(methyl-d3)-6,7-dihydro-7,14-methanobenzo[f]benzo[4,5]imidazo[1,2-a][1,4]diazocin-5(14H)-one] cannot be ordered by IC50: less than 100 nM for the first, less than 100 nM for the second.

Compared with `[2H]C([2H])([2H])N1C(=O)c2cccc(OC(F)F)c2[C@H]2C[C@@H]1c1nc3ccc(C#CC4(C)CCN(C(=O)C5(C)CC5)C4)cc3n12` (stereo partly drawn) [Example 182, (7R,14R)-1-(difluoromethoxy)-6-(methyl-d3)-11-((3-methyl-1-(1-methylcyclopropane-1-carbonyl)pyrrolidin-3-yl)ethynyl)-6,7-dihydro-7,14-methanobenzo[f]benzo[4,5]imidazo[1,2-a][1,4]diazocin-5(14H)-one], `[2H]C([2H])([2H])N1C(=O)c2cccc(OC(F)F)c2[C@H]2C[C@@H]1c1nc3ccc(C#CC4CCOCC4)cc3n12` [Example 48, (7R,14R)-1-(difluoromethoxy)-6-(methyl-d3)-11-((tetrahydro-2H-pyran-4-yl)ethynyl)-6,7-dihydro-7,14-methanobenzo[f]benzo[4,5]imidazo[1,2-a][1,4]diazocin-5(14H)-one] is lower in IC50: 100 to 1000 nM for the first, less than 100 nM for the second.

`[2H]C([2H])([2H])N1C(=O)c2cccc(OC(F)F)c2[C@H]2C[C@@H]1c1nc3ccc(C#CC(C)CCO)cc3n12` (single isomer, unassigned) [Example 240, (7R,14R)-1-(difluoromethoxy)-11-((R or S)-5-hydroxy-3-methylpent-1-yn-1-yl)-6-(methyl-d3)-6,7-dihydro-7,14-methanobenzo[f]benzo[4,5]imidazo[1,2-a][1,4]diazocin-5(14H)-one] and `[2H]C([2H])([2H])N1C(=O)c2cccc(OC(F)F)c2[C@H]2C[C@@H]1c1nc3ccc(C#Cc4cnn(CCN)c4)cc3n12` [Example 15, (7R,14R)-11-((1-(2-aminoethyl)-1H-pyrazol-4-yl)ethynyl)-1-(difluoromethoxy)-6-(methyl-d3)-6,7-dihydro-7,14-methanobenzo[f]benzo[4,5]imidazo[1,2-a][1,4]diazocin-5(14H)-one] cannot be ordered by IC50: less than 100 nM for the first, less than 100 nM for the second.

Same assay, conditions: IC50 value, HEK Blue TNFα reporter cells; TNF-α 100 μg/ml; 24 hrs at 37° C.; inhibition of secreted alkaline phosphatase

`[2H]C([2H])([2H])N1C(=O)c2cccc(OC(F)F)c2[C@H]2C[C@@H]1c1nc3ccc(C#CC4CN(C(C)=O)C4)cc3n12` [Example 120, (7R,14R)-11-((1-acetylazetidin-3-yl)ethynyl)-1-(difluoromethoxy)-6-(methyl-d3)-6,7-dihydro-7,14-methanobenzo[f]benzo[4,5]imidazo[1,2-a][1,4]diazocin-5(14H)-one] and `[2H]C([2H])([2H])N1C(=O)c2cccc(OC(F)F)c2[C@H]2C[C@@H]1c1nc3ccc(C#CCCC)cc3n12` [Example 88, (7R,14R)-1-(difluoromethoxy)-6-(methyl-d3)-11-(pent-1-yn-1-yl)-6,7-dihydro-7,14-methanobenzo[f]benzo[4,5]imidazo[1,2-a][1,4]diazocin-5(14H)-one] cannot be ordered by IC50: less than 100 nM for the first, less than 100 nM for the second.
